Results: the supplement of paper PMC12137928
Counter-ions that a name gives are not always drawn.

Test system: HCT116
Conditions: 72 h
How it was run: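 IC50 and maximal efficacy were derived from four-parameter Hill curve fits. The underlying CellTiter-Glo luminescence was scaled so that vehicle equals 0% and positive control equals -100%, and was then pattern-corrected. HCT116 cells had been seeded in 1536-well plates at 250 per well.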

Row | Structure (SMILES) | IC50 cell viability (ICRF193 0 nM) | IC50 cell viability (ICRF193 200 nM)
1 | CCCCCCCCCCCCOS(=O)(=O)[O-].[Na+] [Sodium dodecyl sulfate] | > 45.8 µM | > 45.8 µM
2 | O=c1cc[nH]c(=O)[nH]1 [Uracil] | > 45.8 µM | > 45.8 µM
3 | CCc1cccc2c3c([nH]c12)C(CC)(CC(=O)O)OCC3 (centres undefined) [Etodolac] | > 45.8 µM | > 45.8 µM
4 | CC(CC(C(N)=O)(c1ccccc1)c1ccccc1)N(C)C (centres undefined) [Aminopentamide sulfate] | > 45.8 µM | > 45.8 µM
5 | CNCCc1ccccn1 [Betahistine mesylate] | > 45.8 µM | > 45.8 µM
6 | Cc1ccc(N(CC2=NCCN2)c2cccc(O)c2)cc1 [Phentolamine mesilate] | > 45.8 µM | > 45.8 µM
7 | NCCCC[C@H](NC(=O)[C@@H]1CCCN1C(=O)[C@@H]1CSSC[C@H](NC(=O)CNC(=O)CNC(=O)CN)C(=O)N[C@@H](Cc2ccc(O)cc2)C(=O)N[C@@H](Cc2ccccc2)C(=O)N[C@@H](CCC(N)=O)C(=O)N[C@@H](CC(N)=O)C(=O)N1)C(=O)NCC(N)=O [Terlipressin] | > 45.8 µM | > 45.8 µM
8 | O=c1oc2c(O)c(O)cc3c(=O)oc4c(O)c(O)cc1c4c23 [Ellagic acid] | > 45.8 µM | > 45.8 µM
9 | Cc1c(C)c2c(c(C)c1OC(=O)CCC(=O)O)CC[C@@](C)(CCC[C@H](C)CCC[C@H](C)CCCC(C)C)O2 [D-alpha-Tocopherol succinate] | > 45.8 µM | > 45.8 µM
10 | COc1ccc(CC(C)NCC(O)c2ccc(O)c(NC=O)c2)cc1 (centres undefined) [Formoterol hemifumarate] | > 45.8 µM | > 45.8 µM
11 | Cc1ccc(/N=C/N(C)/C=N/c2ccc(C)cc2C)c(C)c1 [Amitraz] | > 45.8 µM | > 45.8 µM
12 | CCCN1CC(NS(=O)(=O)N(CC)CC)CC2Cc3c(O)cccc3CC21 (centres undefined) [Quinagolide (hydrochloride)] | > 45.8 µM | > 45.8 µM
13 | CCC1C(C)=NN=C(c2ccc(OC)c(OC)c2)c2cc(OC)c(OC)cc21 (centres undefined) [Tofisopam] | > 45.8 µM | > 45.8 µM
14 | CC(C)OC(=O)CCC/C=C\C[C@@H]1[C@@H](CC[C@@H](O)CCc2ccccc2)[C@H](O)C[C@@H]1O [Latanoprost] | > 45.8 µM | > 45.8 µM
15 | c1ccc(C2(c3ccccc3)CC2C2=NCCN2)cc1 (centres undefined) [Cibenzoline succinate] | > 45.8 µM | > 45.8 µM
16 | CCN1CCC(=C2c3ccccc3CCc3ccccc32)C1C (centres undefined) [Piroheptine Hydrochloride] | > 45.8 µM | > 45.8 µM
17 | Cc1cc(O)ccc1Cl [4-Chloro-3-methylphenol] | > 45.8 µM | > 45.8 µM
18 | CCCCCCCCCCCCCCCC(=O)OC/C=C(C)/C=C/C=C(C)/C=C/C1=C(C)CCCC1(C)C [Retinyl palmitate] | > 45.8 µM | > 45.8 µM
19 | O=C(O)CCCN1CCC(O[C@@H](c2ccc(Cl)cc2)c2ccccn2)CC1 [Bepotastine (Beslilate)] | > 45.8 µM | > 45.8 µM
20 | CC1(C)[C@H](C=C(Cl)Cl)[C@H]1C(=O)OCc1c(F)c(F)cc(F)c1F [Transfluthrin] | > 45.8 µM | > 45.8 µM
21 | CO/N=C(\C(=O)N[C@@H]1C(=O)N2C(C(=O)O)=C(Cn3nnc(C)n3)CS[C@H]12)c1csc(N)n1 [Cefteram] | > 45.8 µM | > 45.8 µM

Row | Structure (SMILES) | IC50 cell viability (ICRF193 0 nM) | IC50 cell viability (ICRF193 200 nM)
22 | O=[N+]([O-])c1ccc([As](=O)(O)O)cc1 [Nitarsone] | > 45.8 µM | > 45.8 µM
23 | NC(=O)c1nc(F)cnc1O [Favipiravir] | > 45.8 µM | > 45.8 µM
24 | CCN(CC)C(C)CN1c2ccccc2Sc2ccccc21 (centres undefined) [Ethopropazine hydrochloride] | > 45.8 µM | > 45.8 µM
25 | Cc1ccc(C)c(OCCCC(C)(C)C(=O)O)c1 [Gemfibrozil] | > 45.8 µM | > 45.8 µM
26 | CC1(C)C(C=C(Cl)Cl)C1C(=O)OCc1cccc(Oc2ccccc2)c1 (centres undefined) [PERMETHRIN] | > 45.8 µM | > 45.8 µM
27 | O=C(c1cc(Cc2n[nH]c(=O)c3ccccc23)ccc1F)N1CCN(C(=O)C2CC2)CC1 [Olaparib] | > 45.8 µM | > 45.8 µM
28 | Cn1c(=O)cc(N2CCC[C@@H](N)C2)n(Cc2ccccc2C#N)c1=O [ALOGLIPTIN BENZOATE] | > 45.8 µM | > 45.8 µM
29 | C[N+](C)(C)C1CCC(CC2CCC([N+](C)(C)C)CC2)CC1 (centres undefined) [Mebezonium Iodide] | > 45.8 µM | > 45.8 µM
30 | CCCc1ccc(C(=O)O)cc1 [4-Propylbenzoic acid] | > 45.8 µM | > 45.8 µM
31 | CO/N=C(\C(=O)N[C@@H]1C(=O)N2C(C(=O)O)=C(CSc3nnnn3C)CS[C@H]12)c1csc(N)n1 [CEFMENOXIME HYDROCHLORIDE] | > 45.8 µM | > 45.8 µM
32 | CC(=O)c1ccc2c(c1)N(CCCN(C)C)c1ccccc1S2 [Acetopromazine maleate] | > 45.8 µM | > 45.8 µM
33 | CCC(=O)[C@@]1(C)[C@H](C)C[C@H]2[C@@H]3CCC4=CC(=O)C=C[C@]4(C)[C@H]3[C@@H](O)C[C@@]21C [Rimexolone] | > 45.8 µM | > 45.8 µM
34 | CCOCCn1c(C2CCN(CCc3ccc(C(C)(C)C(=O)O)cc3)CC2)nc2ccccc21 [Bilastine] | > 45.8 µM | > 45.8 µM
35 | CC(=O)OCC(=O)[C@@]1(O)CC[C@H]2[C@@H]3CCC4=CC(=O)C=C[C@]4(C)[C@@]3(F)[C@@H](O)C[C@@]21C [Isoflupredone acetate] | > 45.8 µM | > 45.8 µM
36 | COc1ccc2cccc(CCNC(C)=O)c2c1 [Agomelatine] | > 45.8 µM | > 45.8 µM
37 | CCCCCCOc1ccccc1C(N)=O [Exalamide] | > 45.8 µM | > 45.8 µM
38 | NC[C@H]1O[C@H](O[C@H]2[C@H](O)[C@@H](O[C@H]3O[C@H](CO)[C@@H](O)[C@H](N)[C@H]3O)[C@H](N)C[C@@H]2N)[C@H](N)C[C@@H]1O [Tobramycin] | > 45.8 µM | > 45.8 µM
39 | CSCC[C@H](NC(=O)[C@H](Cc1ccc(OS(=O)(=O)O)cc1)NC(=O)[C@@H](N)CC(=O)O)C(=O)NCC(=O)N[C@@H](Cc1c[nH]c2ccccc12)C(=O)N[C@@H](CCSC)C(=O)N[C@@H](CC(=O)O)C(=O)N[C@@H](Cc1ccccc1)C(N)=O [Sincalide] | > 45.8 µM | > 45.8 µM
40 | NCCN.[Cl][Pt][Cl] [Dichloro(ethylenediamine)platinum(II)] | > 45.8 µM | > 45.8 µM
41 | O=C(O)COCCN1CCN(C(c2ccccc2)c2ccc(Cl)cc2)CC1 (centres undefined) [CETIRIZINE HYDROCHLORIDE] | > 45.8 µM | > 45.8 µM
42 | CCNC(=O)CCC/C=C\C[C@@H]1[C@@H](/C=C/[C@@H](O)CCc2ccccc2)[C@H](O)C[C@@H]1O [Bimatoprost] | > 45.8 µM | > 45.8 µM

Row | Structure (SMILES) | IC50 cell viability (ICRF193 0 nM) | IC50 cell viability (ICRF193 200 nM)
43 | O=C(O)COC(=O)Cc1ccccc1Nc1c(Cl)cccc1Cl [Aceclofenac] | > 45.8 µM | > 45.8 µM
44 | Cn1cc(C(=O)[C@@H]2CCc3[nH]cnc3C2)c2ccccc21 [Ramosetron hydrochloride] | > 45.8 µM | > 45.8 µM
45 | CCCCCCCCCCCCCCCC(=O)OC[C@H](O)[C@H]1OC(=O)C(O)=C1O [L-Ascorbyl 6-palmitate] | > 45.8 µM | > 45.8 µM
46 | CCCOc1cc(N)ccc1C(=O)OCCN(CC)CC [PROPOXYCAINE HYDROCHLORIDE] | > 45.8 µM | > 45.8 µM
47 | CCCC(=O)Nc1ccc(OCC(O)CNC(C)C)c(C(C)=O)c1 (centres undefined) [Acebutolol hydrochloride] | > 45.8 µM | > 45.8 µM
48 | CNC1(C)C2CCC(C2)C1(C)C (centres undefined) [Mecamylamine] | > 45.8 µM | > 45.8 µM
49 | OCCN1CCN(CCCN2c3ccccc3C=Cc3ccccc32)CC1 [Opipramol dihydrochloride] | > 45.8 µM | > 45.8 µM
50 | O=c1n(CCCN2CCN(c3cccc(Cl)c3)CC2)nc2ccccn12 [Trazodone hydrochloride] | > 45.8 µM | > 45.8 µM
51 | CO[C@H]1/C=C/O[C@@]2(C)Oc3c(C)c(O)c4c(O)c(c5c(nc6cc(C)ccn65)c4c3C2=O)NC(=O)/C(C)=C\C=C\[C@H](C)[C@H](O)[C@@H](C)[C@@H](O)[C@@H](C)[C@H](OC(C)=O)[C@@H]1C [Rifaximin] | > 45.8 µM | > 45.8 µM
52 | CC([C@H](O)c1ccccc1)N(C)C (stereo partly drawn) [N-METHYL (-)EPHEDRINE [1R,2S]] | > 45.8 µM | > 45.8 µM
53 | c1ccc2[nH]ccc2c1 [Indole] | > 45.8 µM | > 45.8 µM
54 | CCCCCCCCCCCCCCCCCCO [1-Octadecanol] | > 45.8 µM | > 45.8 µM
55 | CC(C)=CCC/C(C)=C/CO [Geraniol] | > 45.8 µM | > 45.8 µM
56 | CC(NC(C)(C)C)C(=O)c1cccc(Cl)c1 (centres undefined) [Bupropion hydrochloride] | > 45.8 µM | > 45.8 µM
57 | COc1ccc(C(=O)N2CCN(c3ccc4c(c3)CCC(=O)N4)CC2)cc1OC [Vesnarinone] | > 45.8 µM | > 45.8 µM
58 | COc1ccccc1OCC(O)CN1CCN(CC(=O)Nc2c(C)cccc2C)CC1 (centres undefined) [Ranolazine] | > 45.8 µM | > 45.8 µM
59 | N[C@H](Cc1ccccc1)C(=O)O [D-Phenylalanine] | > 45.8 µM | > 45.8 µM
60 | C=C1/C(=C\C=C2/CCC[C@]3(C)[C@@H]([C@H](C)OCCC(C)(C)O)CC[C@@H]23)C[C@@H](O)C[C@@H]1O [Maxacalcitol-D6] | > 45.8 µM | > 45.8 µM
61 | CC12CCC(CC1=O)C2(C)C [D-Camphor] | > 45.8 µM | > 45.8 µM
62 | CCCCCC[C@@H](CCC)C(=O)O [(2R)-2-Propyloctanoic acid] | > 45.8 µM | > 45.8 µM
